What was measured:
B16-F10 (mouse melanoma) = experiment: Cytotoxicity, alamar blue assay; assay type: cell-based; conditions: for Selectivity index, B16-F10 versus MRC-5: SI = IC50[MRC-5]/IC50[B16-F10]; for Selectivity index, B16-F10 versus PBMC: SI = IC50[PBMC]/IC50[B16-F10]
Procedure: (§1) Cytotoxicity was measured using alamar blue assay and was performed following the procedure that was described previously[21],[22]. Briefly, cells were inserted in 96-well plates and incubated overnight. Then, the complexes were dissolved in dimethyl sulfoxide (DMSO, LGC Biotechnology, São Paulo, SP, Brazil) and added to each well and incubated for 72 h. […] Before the end of treatment (4 h for cell lines and 24 h for PBMC), 20 μL of a stock solution (0.312 mg/mL) of alamar blue (resazurin, Sigma-Aldrich Co.) were added to each well. Absorbance at 570 nm and 600 nm was measured using SpectraMax 190 Microplate Reader (Molecular Devices, Sunnyvale, CA, USA).

[1] = tested on: MRC-5 (human lung fibroblast); experiment: Cytotoxicity, alamar blue assay; assay type: cell-based; conditions: non-cancer cells, 72 h, read-out: IC50 and 95% CI, MRC-5
Procedure: as §1

[2] = tested on: PBMC (human peripheral blood mononuclear cells); experiment: Cytotoxicity, alamar blue assay; assay type: cell-based; conditions: non-cancer cells, 72 h, read-out: IC50 and 95% CI, PBMC
Source text: HL-60 (human acute promyelocytic leukemia), K-562 (human chronic myelogenous leukemia), HCT116 (human colon carcinoma), HepG2 (human hepatocellular carcinoma), HSC-3 (human oral squamous cell carcinoma), SCC-9 (human oral squamous cell carcinoma), B16-F10 (mouse melanoma), MRC-5 (human lung fibroblast), WT SV40 MEF (wild-type immortalized mouse embryonic fibroblast) and BAD KO SV40 MEF (BAD gene knockout immortalized mouse embryonic fibroblast) cell lines were obtained from American Type Culture Collection (ATCC, Manassas, VA, USA). Human peripheral blood mononuclear cells (PBMC) were isolated using standard Ficoll density gradient from heparinized blood collected from 20- to 35-year-old, non-smoker healthy donors with informed consent (number 031019/2013) approved by Human Ethics Committee of Gonçalo Moniz Institute from Oswaldo Cruz Foundation (IGM-FIOCRUZ/BA), and all experiments were performed in accordance with relevant guidelines and regulations. Cells were cultured as recommended by ATCC guidelines and a mycoplasma stain kit (Sigma-Aldrich) was used to validate the use of cells free from contamination. Cell viability in all experiments was examined using the trypan blue exclusion (TBE) assay. Over 90% of the cells were viable at the beginning of the culture.
as §1

HL-60 cells [3] = experiment: Intracellular ruthenium quantification by energy dispersive X-ray spectrometer; assay type: cell-based, human; conditions: HL-60, 3 h, 500 µM
Procedure: Intracellular ruthenium quantification in HL-60 cells was evaluated by energy dispersive X-ray spectrometer (EDS)[23]. Cells were fixed in sodium cacodylate buffer (0.1 M sodium cacodylate solution pH 7.4, plus 2.5% glutaraldehyde and 2% paraformaldehyde) for at least 2 h. After washing, cells were dehydrated in an acetone series and embedded in polybed epoxy resin (Polysciences; Warrington, PA). Ultrathin sections were examined under a JEM-1230 transmission electron microscope (TEM) integrated with an EDS microanalytics system (JEOL USA, Inc., Peabody, MA, USA).

any cells = experiment: Cytotoxicity, alamar blue assay, whole cell panel; assay type: cell-based; conditions: 72 h, not cytotoxic at concentrations tested
Procedure: as §1

[4] = tested on: BAD KO SV40 MEF (immortalized mouse embryonic fibroblast with the BAD gene knocked out); experiment: Cytotoxicity, alamar blue assay; assay type: cell-based; conditions: 72 h, read-out: IC50, BAD KO SV40 MEF cell line
Procedure: as §1

[5] = tested on: HCT116 (human colon carcinoma); experiment: Cytotoxicity, alamar blue assay; assay type: cell-based; conditions: for Selectivity index, HCT116 versus MRC-5: SI = IC50[MRC-5]/IC50[HCT116]; for Selectivity index, HCT116 versus PBMC: SI = IC50[PBMC]/IC50[HCT116]
Procedure: as §1

[6] = tested on: HL-60 (human acute promyelocytic leukemia); experiment: Cytotoxicity, alamar blue assay; assay type: cell-based; conditions: for Selectivity index, HL-60 versus MRC-5: SI = IC50[MRC-5]/IC50[HL-60]; for Selectivity index, HL-60 versus PBMC: SI = IC50[PBMC]/IC50[HL-60]; for IC50: alamar blue, 72 h, read-out: IC50 and 95% CI, HL-60
Procedure: as §1

[7] = tested on: HSC-3 (human oral squamous cell carcinoma); experiment: Cytotoxicity, alamar blue assay; assay type: cell-based; conditions: for Selectivity index, HSC-3 versus MRC-5: SI = IC50[MRC-5]/IC50[HSC-3]; for Selectivity index, HSC-3 versus PBMC: SI = IC50[PBMC]/IC50[HSC-3]; for IC50: alamar blue, 72 h, read-out: IC50 and 95% CI, HSC-3
Procedure: as §1

[8] = tested on: HepG2 (human hepatocellular carcinoma); experiment: Cytotoxicity, alamar blue assay; assay type: cell-based; conditions: for Selectivity index, HepG2 versus MRC-5: SI = IC50[MRC-5]/IC50[HepG2]; for Selectivity index, HepG2 versus PBMC: SI = IC50[PBMC]/IC50[HepG2]
Procedure: as §1

[9] = tested on: K-562 (human chronic myelogenous leukemia); experiment: Cytotoxicity, alamar blue assay; assay type: cell-based; conditions: for Selectivity index, K-562 versus MRC-5: SI = IC50[MRC-5]/IC50[K-562]; for Selectivity index, K-562 versus PBMC: SI = IC50[PBMC]/IC50[K-562]
Procedure: as §1

[10] = tested on: SCC-4 (human oral squamous cell carcinoma); experiment: Cytotoxicity, alamar blue assay; assay type: cell-based; conditions: for Selectivity index, SCC-4 versus MRC-5: SI = IC50[MRC-5]/IC50[SCC-4]; for Selectivity index, SCC-4 versus PBMC: SI = IC50[PBMC]/IC50[SCC-4]
Procedure: as §1

[11] = tested on: WT SV40 MEF (wild-type immortalized mouse embryonic fibroblasts); experiment: Cytotoxicity, alamar blue assay; assay type: cell-based; conditions: 72 h, read-out: IC50, WT SV40 MEF cell line
Procedure: as §1

HL-60 cells [12] = experiment: Trypan blue exclusion assay; assay type: cell-based, human
Procedure: The number of viable cells and non-viable (take up trypan blue) were counted by TBE method. Shortly, 90 μL was removed from the cell suspension and 10 μL of trypan blue (0.4%) was added. Cell counting was performed using a light microscope with a neubauer chamber.

HL-60 cells [13] = experiment: Apoptosis quantification, annexin V-FITC/PI flow cytometry; assay type: cell-based, human
Procedure: Shortly, cells were washed twice with saline solution and resuspended in 100 μL of binding buffer plus 5 μL of propidium iodide (PI) and 5 μL of FITC Annexin V. Then, cells were gently mixed by vortexing and incubated for 15 min at room temperature in the dark. Finally, 400 μL of binding buffer was added to each tube, and the cell fluorescence was determined by flow cytometry, as described above. Percentage of viable, early apoptotic, late apoptotic and necrotic cells were measured. […] Cells were then analyzed by FITC Annexin V Apoptosis Detection assay as described above.

HL-60 cell xenografts = experiment: Human myeloid leukemia xenograft model; assay type: in vivo, C.B-17 SCID mice
Procedure: Fifty six specific-pathogen-free (SPF) C.B-17 severe combined immunodeficient (SCID) mice (females, 23–26 g) were used in this study. The animals were obtained and maintained at animal facilities from Gonçalo Moniz Institute-FIOCRUZ (Salvador, Bahia, Brazil), and housed in cages with free access to food and water, and kept under a 12:12 h light-dark cycle (lights on at 6:00 a.m.). The animals were treated according to ethical principles for animal experimentation of SBCAL (Brazilian Association of Laboratory Animal Science), Brazil. Experimental protocol have been approved (number 06/2015) by Animal Ethics Committee of Gonçalo Moniz Institute-FIOCRUZ (Salvador, Bahia, Brazil).
Human myeloid leukemia xenograft model was carry out as described previously by Rodrigues et al.[26] with minor modifications. HL-60 cells (2.5 × 10^7 cells/500 µL) were implanted subcutaneously into the left front armpit of the mice. […] When the tumors reached 100 to 200 mm^3 (22 days after HL-60 cells injection), the animals were treated through the intraperitoneal route (200 µL per animal) once a day for 13 consecutive days. One day after the end of the treatment, the animals were anesthetized, and peripheral blood samples were collected from brachial artery. Animals were euthanized by anesthetic overdose, and tumors were excised and weighed.

[14] = Toxicological evaluation in xenograft mice; assay type: in vivo, C.B-17 SCID mice; conditions: complex 1 20 and 40 mg/kg
Procedure: To assess toxicological aspects, mice were weighed at the beginning and at the end of the experiment as described previously by Rodrigues et al.[26]. […] Hematological analysis was performed using the Advia 60 hematology system (Bayer, Leverkusen, Germany). Livers, kidneys, lungs and hearts were removed, weighed and examined for any signs of macroscopic lesions, color changes and/or hemorrhages. After macroscopic examination, tumors, livers, kidneys, lungs and hearts were fixed in 4% formalin buffer and embedded in paraffin. Tissue sections were stained with hematoxylin/eosin staining, and a pathologist performed the histological analyses under optical microscopy.

[15] = 20 mg/kg intraperitoneal once a day for 13 consecutive days
[16] = 40 mg/kg intraperitoneal once a day for 13 consecutive days

Molecule	IC50 [1] [µM]	IC50 [2] [µM]	Intracellular platinum (HL-60 cells [3])	Selectivity index, B16-F10 versus MRC-5 (B16-F10 (mouse melanoma))	Selectivity index, B16-F10 versus PBMC (B16-F10 (mouse melanoma))	IC50 [4] [µM]	Selectivity index, HCT116 versus MRC-5 [5]	Selectivity index, HCT116 versus PBMC [5]	Selectivity index, HL-60 versus MRC-5 [6]	Selectivity index, HL-60 versus PBMC [6]	IC50 [6] [µM]	Selectivity index, HSC-3 versus MRC-5 [7]	Selectivity index, HSC-3 versus PBMC [7]	IC50 [7] [µM]	Selectivity index, HepG2 versus MRC-5 [8]	Selectivity index, HepG2 versus PBMC [8]	Selectivity index, K-562 versus MRC-5 [9]	Selectivity index, K-562 versus PBMC [9]	Selectivity index, SCC-4 versus MRC-5 [10]	Selectivity index, SCC-4 versus PBMC [10]	further results
O=C1[O][Pt]2([NH][C@@H]3CCCC[C@H]3[NH]2)[O]C1=O [oxaliplatin, reference compound]	1.54	14.9	able to quantify platinum	–	–	–	–	–	–	–	–	–	–	–	–	–	–	–	–	–	IC50 (B16-F10 (mouse melanoma); alamar blue, 72 h, read-out: IC50 and 95% CI, B16-F10): 0.03 µM
Cc1cc(=O)[nH]c(=S)[nH]1 [6-methyl-2-thiouracil]	–	–	–	–	–	–	–	–	–	–	–	–	–	–	–	–	–	–	–	–	IC50 (any cells): > 176 µM
[Ru(6m2tu)2(dppb)] [Complex 2]	3.06	1.25	–	2.9	1.2	4.2	2.6	1.1	23.5	9.6	0.13	1.5	0.6	2.04	3.7	1.5	9	3.7	2.5	1	IC50 [11]: 3.9 µM; Reduction of the number of viable cells (HL-60 cells [12]; HL-60, 12 h, 1 μM): no statistically significant reduction; Reduction of the number of viable cells (HL-60 cells [12]; HL-60, 12 h, 2 μM): 44.1%; Reduction of the number of viable cells (HL-60 cells [12]; HL-60, 24 h, 1 μM): 36.1%; Reduction of the number of viable cells (HL-60 cells [12]; HL-60, 24 h, 2 μM): 60.1%; Apoptosis (annexin V-FITC positive cells) (HL-60 cells [13]; HL-60, 12 h, 1 μM): no statistically significant apoptosis induction; Apoptosis (annexin V-FITC positive cells) (HL-60 cells [13]; HL-60, 12 h, 2 μM): 31.1%; Apoptosis (annexin V-FITC positive cells) (HL-60 cells [13]; HL-60, 24 h, 1 μM): 32.1%; Apoptosis (annexin V-FITC positive cells) (HL-60 cells [13]; HL-60, 24 h, 2 μM): 55.9%
N.N.[Cl][Pt][Cl] [cisplatin]	–	–	able to quantify platinum	–	–	–	–	–	–	–	–	–	–	–	–	–	–	–	–	–	–
Cc1cc(=O)[nH]c([S][Ru]([S]c2nc(C)cc(=O)[nH]2)([PH](c2ccccc2)(c2ccccc2)c2ccccc2)[PH](c2ccccc2)(c2ccccc2)c2ccccc2)n1 [Complex 1, cis-[Ru(6m2tu)2(PPh3)2]]	5.71	2.57	–	6.9	3.1	3.1	4.1	1.9	571	257	0.01	1.3	0.6	4.37	6	2.7	28.6	12.9	3.5	1.6	IC50 [11]: 3.5 µM; Reduction of the number of viable cells (HL-60 cells [12]; HL-60, 12 h, 1 μM): no statistically significant reduction; Reduction of the number of viable cells (HL-60 cells [12]; HL-60, 12 h, 2 μM): 36.9%; Reduction of the number of viable cells (HL-60 cells [12]; HL-60, 24 h, 1 μM): 65.3%; Reduction of the number of viable cells (HL-60 cells [12]; HL-60, 24 h, 2 μM): 77.1%; Apoptosis (annexin V-FITC positive cells) (HL-60 cells [13]; HL-60, 12 h, 1 μM): no statistically significant apoptosis induction; Apoptosis (annexin V-FITC positive cells) (HL-60 cells [13]; HL-60, 12 h, 2 μM): 37.2%; Apoptosis (annexin V-FITC positive cells) (HL-60 cells [13]; HL-60, 24 h, 1 μM): 38.5%; Apoptosis (annexin V-FITC positive cells) (HL-60 cells [13]; HL-60, 24 h, 2 μM): 66.4%; Mean of tumor mass weight (HL-60 cell xenografts; [15]): 0.4 ± 0.1 g; Tumor mass inhibition rate (HL-60 cell xenografts; [15]): 73.1%; Mean of tumor mass weight (HL-60 cell xenografts; [16]): 0.3 ± 0.1 g; Tumor mass inhibition rate (HL-60 cell xenografts; [16]): 79.9%; Tumor histomorphological analysis (HL-60 cell xenografts; 20 and 40 mg, hematoxylin/eosin): areas with nodular/encapsulated growth and extracellular matrix formation were more evident; Liver histopathology [14]: focal areas of steatosis were observed; Kidney histopathology ([14]; doxorubicin 0.1 mg/kg): Coagulation necrosis was observed in renal tubules; Lung histopathology ([14]; doxorubicin 0.1 mg/kg): inflammation was more evident

Source: PMC6686011, “Ruthenium(II) complexes with 6-methyl-2-thiouracil selectively reduce cell proliferation, cause DNA double-strand break and trigger caspase-mediated apoptosis through JNK/p38 pathways in human acute promyelocytic leukemia cells” (Scientific Reports, 2019)
